From patent publication US11306080B2, “Crystalline form of a BACE inhibitor, compositions, and use” (Merck Sharp & Dohme Corp., priority 2017, dated 2022)
“Also recorded” adds a separate entry of the source.

Experiments:
Format in all cases: physicochemical
[1] = 4 week open dish accelerated chemical stability of 12 mg tablets, analyzed using HPLC; conditions: 40° C./75% RH
Description: To assess the chemical stability of Crystalline Form II of verubecestat in the tablet formulation, a 4 week open dish accelerated stability experiment was performed at a controlled temperature and humidity. Identical measurements were made to Crystalline Form I of verubecestat, which Form I is described in WO2016025364 for comparison. […] At the end of two weeks and of four weeks, tablets were analyzed using HPLC. The data obtained are reported in the following table, where “Hyd1” and “Hyd2” indicate observed degradation product: […]

[2] = Thermodynamic stability by competitive slurry experiments in various solvent systems, resultant form by PXRD; conditions: slurried in various solvents for an extended period of time at a controlled temperature
Description: The thermodynamic stability of Crystalline Form II of Verubecestat was assessed using competitive slurry experiments in various solvent systems. Crystalline Form I of Verubecestat, obtained using the procedures set out in WO2016025364, and Crystalline Form II of verubecestat material obtained as described above were slurried in various solvents for an extended period of time and at a controlled temperature. At the end of the experiments, the solvent was removed and the remaining crystalline material were evaluated using Powder X-ray Diffraction (PXRD) to confirm the resultant form.

[3] = BCS (Biopharmaceutics Classification System) designation; conditions: listed as Crystalline Form II of Verubecestat

Assay (% LC) ([1]; 2 weeks) | Assay (% LC) ([1]; 4 weeks) | Assay (% LC) ([1]; time point 0) | Degradation Product (%) Hyd1 ([1]; time point 0) | Degradation Product (%) Hyd2 ([1]; time point 0) | Degradation Product (%) Total ([1]; time point 0) | Form remaining after competitive slurry of Form I and Form II (thermodynamic stability) [2] | BCS class [3] | Structure (SMILES)
98.5 | 97.4 | 98.5 | — (“—”means not more than 0.05%) | — (“—”means not more than 0.05%) | — (“—”means not more than 0.05%) |  |  | CN1C(=N)N[C@](C)(c2cc(NC(=O)c3ccc(F)cn3)ccc2F)CS1(=O)=O [Crystalline Form I, verubecestat, reference compound]
104.6 | 102.4 | 104.3 | — (“—”means not more than 0.05%) | — (“—”means not more than 0.05%) | — (“—”means not more than 0.05%) | the only form remaining | Class I; also recorded: Class 1 | CN1C(N)=N[C@](C)(c2cc(NC(=O)c3ccc(F)cn3)ccc2F)CS1(=O)=O [Crystalline Form II, N-[3-[(5R)-3-amino-5,6-dihydro-2,5-dimethyl-1,1-dioxido-2H-1,2,4-thiadiazin-5-yl]-4-fluorophenyl]-5-fluoro-2-pyridinecarboxamide]
